Results as given in patent US20190290650A1, “FORMULATIONS/COMPOSITIONS COMPRISING A BTK INHIBITOR” (Janssen Pharmaceutic NV, priority 2016, published 2019).
Read-outs that look alike come from different tables or passages of the source.

How the values were obtained:
[1] = general statement, no test described; cited from earlier work
[2] = test system: OCI-Ly10; test: Growth inhibition of OCI-Ly10 (ABC-DLBCL) cells; type: cell-based; settings: Homo sapiens
Excerpt: See U.S. Pat. No. 7,711,492 and Staudt et al., Nature, Vol. 463, Jan. 7, 2010, pp. 88-92, the contents of which are incorporated by reference in their entirety.

In the case of `C=CC(=O)N1CCC[C@@H](n2nc(-c3ccc(Oc4ccccc4)cc3)c3c(N)ncnc32)C1` [Compound 1, 1-((R)-3-(4-amino-3-(4-phenoxyphenyl)-1H-pyrazolo[3,4-d]pyrimidin-1-yl)piperidin-1-yl)prop-2-en-1-one], the Water solubility [1] is given as “very low water solubility”, the EC50 ([2]; continuous exposure, read-out: EC50 continuous exposure (growth of OCI-Ly10)) is given as 0.01 µM and the EC50 ([2]; read-out: EC50 1 hour pulse (growth of OCI-Ly10), 1 hour pulse) is given as 0.05 µM.
